Reference: patent US20220220128A1, “HETEROCYCLIC COMPOUNDS AS KINASE INHIBITORS, COMPOSITIONS COMPRISING THE HETEROCYCLIC COMPOUND, AND METHODS OF USE THEREOF” (JS Innopharm (Shanghai) Ltd, priority 2019, published 2022)

Assays:
BAF3-KIF5B-RET cells = target: T1, BAF3-KIF5B-RET cells (Homo sapiens, UniProt P07949); experiment: BAF3-KIF5B-RET Cell proliferation assay (CellTiter-Glo, 72 hours); format: cell-based; conditions: growth inhibition, read-out: BA/F3-KIF5B-RET Cellular activity
T1 construct: fused on or other part: P33176 (Kinesin-1 heavy chain)
Protocol: Compounds disclosed herein were tested for the inhibition of RET by a cancer cell proliferation assay commonly known as CellTiter-Glo assay. In this assay, a complete media was prepared by adding 10% fetal bovine serum to RPMI-1640 medium (Life technology) for BAF3-FIF5B-RET cells. BAF3-KIF5B-RET cells were added to each of 88 wells of a 96 well plate at a seeding density of 2,000 cells/well/95 μL. The cells were allowed to attach to the plate by incubating at 37° C. for 24 hours. The compound was dissolved in DMSO (SIGMA). A solution of test compound was prepared in complete media by serial dilution to obtain the following concentrations: 20 μM, 6.67 μM, 2.22 μM, 0.74 μM, 0.25 μM, 0.082 μM, 0.027 μM, 0.0091 μM and 0.0030 μM. The test compound solution (5 μL) was added to each of 80 cell-containing wells. The final concentrations of the compound were following: 1 μM, 0.33 μM, 0.11 μM, 0.037 μM, 0.012 μM, 0.0041 μM, 0.0014 μM, 0.00046 μM and 0.00015 μM. The final concentration of DMSO is 0.1%. To the 8 remaining cell-containing wells, only complete media (containing 0.1% DMSO) was added to form a control group in order to measure maximal proliferation. To the remaining 8 empty wells, complete media was added to for a vehicle control group in order to measure background. The plates were incubated at 37° C. for 72 hours. 50 μl of CellTiter-Glo® Reagent was added to each well. Mix contents for 2 minutes on an orbital shaker to induce cell lysis. Incubate at room temperature for 10 minutes to stabilize luminescent signal. Record luminescence on Paradigm. Cell viability (CV %) was calculated relative to vehicle (DMSO) treated control wells. The IC50 was calculated using GraphPad Prism.

human RET kinase = target: T2, human RET kinase (Homo sapiens, UniProt P07949); experiment: RET Kinase Assay (LanthaScreen TR-FRET enzymatic assay); format: biochemical; conditions: 7 nM RET, 23 μM ATP
T2 construct: purchased Carna 08-159
Method in brief: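 Human RET (7 nM) preincubated 15 min with compound in 50 mM HEPES pH 7.5, 0.0015% Brij-35, then reacted with 3 μM FAM-P2 peptide and 23 μM ATP for 1 h at 28° C.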

human KDR kinase = target: T3, human KDR kinase (Homo sapiens, UniProt P35968); experiment: KDR Kinase Assay (LanthaScreen TR-FRET enzymatic assay); format: biochemical; conditions: 1.2 nM KDR, 92 μM ATP
T3 construct: purchased Carna 08-191
Method in brief: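 Recombinant human KDR (1.2 nM) preincubated 15 min at room temperature with compound, then reacted with 3 μM FAM-P22 peptide and 92 μM ATP in 50 mM HEPES pH 7.5 for 1 h at 28° C. EDTA stop, then TR-FRET acceptor/donor ratio read; percent of 1% DMSO control fitted sigmoidally for IC50.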

TT cells = experiment: TT Cell Proliferation Assay (WST-8, 8 days); format: cell-based; conditions: Homo sapiens, TT, 192 h, growth inhibition in TT cells, read-out: TT Cellular Activity
Method in brief: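 TT cells, 6,000/well in RPMI-1640 with 10% FBS, attached 24 h, then exposed to compound at 5 μM down to 0.0005 μM final (0.5% DMSO) for 8 days at 37 °C. WST-8 added for 5 h, absorbance at 450 nm. IC50 calculated from the dilution series.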

T1 sequence (P07949 whole entry, change not shown, the tested form may be a part): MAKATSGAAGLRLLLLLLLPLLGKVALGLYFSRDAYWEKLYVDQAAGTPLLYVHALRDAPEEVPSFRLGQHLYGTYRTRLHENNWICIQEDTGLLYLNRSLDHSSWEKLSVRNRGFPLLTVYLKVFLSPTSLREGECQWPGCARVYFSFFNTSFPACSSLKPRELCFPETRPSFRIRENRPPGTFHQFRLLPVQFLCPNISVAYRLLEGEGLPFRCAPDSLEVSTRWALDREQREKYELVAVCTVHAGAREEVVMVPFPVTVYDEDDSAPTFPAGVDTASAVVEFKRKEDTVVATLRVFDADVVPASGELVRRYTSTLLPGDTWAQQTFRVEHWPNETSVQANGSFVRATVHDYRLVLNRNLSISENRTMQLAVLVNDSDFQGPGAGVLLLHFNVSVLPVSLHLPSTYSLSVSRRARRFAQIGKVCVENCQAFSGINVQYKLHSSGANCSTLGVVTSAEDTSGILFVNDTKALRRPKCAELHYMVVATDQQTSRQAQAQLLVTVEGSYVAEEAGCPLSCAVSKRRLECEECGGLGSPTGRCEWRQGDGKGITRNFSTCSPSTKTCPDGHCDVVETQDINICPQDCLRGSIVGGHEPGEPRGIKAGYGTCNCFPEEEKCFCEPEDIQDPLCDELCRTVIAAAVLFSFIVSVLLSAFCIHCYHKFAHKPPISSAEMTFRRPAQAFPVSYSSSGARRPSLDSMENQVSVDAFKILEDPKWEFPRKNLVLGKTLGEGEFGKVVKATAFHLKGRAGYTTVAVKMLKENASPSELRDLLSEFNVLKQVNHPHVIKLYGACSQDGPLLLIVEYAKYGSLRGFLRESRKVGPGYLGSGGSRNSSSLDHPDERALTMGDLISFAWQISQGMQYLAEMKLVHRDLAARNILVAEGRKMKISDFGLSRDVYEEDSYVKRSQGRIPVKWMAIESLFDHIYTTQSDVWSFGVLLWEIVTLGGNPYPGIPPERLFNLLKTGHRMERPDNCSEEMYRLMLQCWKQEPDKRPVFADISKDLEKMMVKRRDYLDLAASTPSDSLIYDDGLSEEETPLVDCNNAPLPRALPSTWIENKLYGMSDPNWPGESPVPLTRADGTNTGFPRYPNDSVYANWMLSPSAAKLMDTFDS
T2 sequence (P07949 29-1114): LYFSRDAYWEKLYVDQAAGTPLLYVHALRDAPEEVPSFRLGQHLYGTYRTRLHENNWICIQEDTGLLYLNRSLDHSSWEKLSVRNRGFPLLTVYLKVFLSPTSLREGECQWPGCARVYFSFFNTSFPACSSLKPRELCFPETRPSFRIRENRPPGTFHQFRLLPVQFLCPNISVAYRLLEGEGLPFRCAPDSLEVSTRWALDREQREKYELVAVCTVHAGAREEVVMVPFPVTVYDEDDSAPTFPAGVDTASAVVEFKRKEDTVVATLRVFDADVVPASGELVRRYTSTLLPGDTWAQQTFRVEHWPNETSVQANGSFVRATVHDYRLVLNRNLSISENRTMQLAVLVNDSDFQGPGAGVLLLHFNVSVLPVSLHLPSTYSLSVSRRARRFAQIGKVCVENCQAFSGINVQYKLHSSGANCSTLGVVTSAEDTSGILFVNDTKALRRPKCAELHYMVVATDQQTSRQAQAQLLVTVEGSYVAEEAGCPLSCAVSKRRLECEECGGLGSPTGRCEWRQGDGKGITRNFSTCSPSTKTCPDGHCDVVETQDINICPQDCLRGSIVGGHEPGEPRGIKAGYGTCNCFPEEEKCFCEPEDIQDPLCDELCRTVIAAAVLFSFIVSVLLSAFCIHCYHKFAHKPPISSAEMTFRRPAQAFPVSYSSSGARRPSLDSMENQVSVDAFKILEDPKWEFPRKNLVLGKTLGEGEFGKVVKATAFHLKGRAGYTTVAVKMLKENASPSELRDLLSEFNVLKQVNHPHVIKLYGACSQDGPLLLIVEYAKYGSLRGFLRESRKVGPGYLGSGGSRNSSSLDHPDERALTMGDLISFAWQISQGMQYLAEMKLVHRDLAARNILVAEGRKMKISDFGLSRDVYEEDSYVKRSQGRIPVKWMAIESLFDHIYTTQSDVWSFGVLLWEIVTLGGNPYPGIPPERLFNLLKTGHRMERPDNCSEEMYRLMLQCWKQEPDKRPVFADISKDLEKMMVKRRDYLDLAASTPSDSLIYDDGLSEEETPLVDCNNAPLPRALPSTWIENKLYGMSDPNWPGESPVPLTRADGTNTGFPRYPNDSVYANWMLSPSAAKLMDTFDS
T3 sequence (P35968 20-1356): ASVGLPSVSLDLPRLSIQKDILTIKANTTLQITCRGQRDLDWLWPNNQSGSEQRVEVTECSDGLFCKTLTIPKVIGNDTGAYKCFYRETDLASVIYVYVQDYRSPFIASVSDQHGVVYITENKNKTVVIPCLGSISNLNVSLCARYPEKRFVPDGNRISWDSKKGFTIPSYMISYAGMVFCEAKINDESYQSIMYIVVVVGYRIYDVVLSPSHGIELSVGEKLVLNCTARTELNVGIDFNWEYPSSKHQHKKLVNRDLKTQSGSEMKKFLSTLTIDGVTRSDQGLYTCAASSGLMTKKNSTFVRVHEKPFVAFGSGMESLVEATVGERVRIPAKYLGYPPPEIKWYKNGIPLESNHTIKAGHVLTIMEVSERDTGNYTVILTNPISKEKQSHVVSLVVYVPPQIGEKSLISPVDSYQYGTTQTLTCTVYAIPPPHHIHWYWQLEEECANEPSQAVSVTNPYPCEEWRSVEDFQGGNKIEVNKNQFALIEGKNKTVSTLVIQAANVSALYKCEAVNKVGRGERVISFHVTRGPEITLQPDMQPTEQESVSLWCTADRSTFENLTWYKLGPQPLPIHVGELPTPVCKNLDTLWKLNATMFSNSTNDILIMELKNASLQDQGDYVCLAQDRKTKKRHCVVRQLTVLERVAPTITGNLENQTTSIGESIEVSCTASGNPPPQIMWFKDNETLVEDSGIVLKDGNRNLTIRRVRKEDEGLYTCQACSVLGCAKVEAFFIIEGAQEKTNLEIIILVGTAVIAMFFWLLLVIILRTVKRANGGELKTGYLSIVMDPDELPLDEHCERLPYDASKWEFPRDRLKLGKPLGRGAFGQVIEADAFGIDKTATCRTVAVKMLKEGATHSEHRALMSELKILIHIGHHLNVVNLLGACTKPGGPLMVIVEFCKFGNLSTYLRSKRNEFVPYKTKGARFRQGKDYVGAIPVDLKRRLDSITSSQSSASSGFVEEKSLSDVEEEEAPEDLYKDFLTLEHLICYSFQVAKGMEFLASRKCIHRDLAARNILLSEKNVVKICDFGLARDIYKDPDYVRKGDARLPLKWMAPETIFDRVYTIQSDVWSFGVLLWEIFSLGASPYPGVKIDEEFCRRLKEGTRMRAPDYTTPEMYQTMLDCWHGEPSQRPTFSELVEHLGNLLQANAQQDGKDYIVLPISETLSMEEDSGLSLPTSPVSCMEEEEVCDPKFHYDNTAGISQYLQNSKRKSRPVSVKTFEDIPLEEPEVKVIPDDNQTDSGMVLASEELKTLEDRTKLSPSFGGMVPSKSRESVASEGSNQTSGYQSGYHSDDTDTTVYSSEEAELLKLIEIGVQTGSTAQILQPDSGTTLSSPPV

Row | Structure (SMILES) | GI50 (BAF3-KIF5B-RET cells) [nM] | IC50 (human RET kinase) [nM] | IC50 (human KDR kinase) [nM] | IC50 (TT cells) [nM]
1 | CC(C)(O)COc1cc(-c2ccc(N3C[C@@H]4[C@H](C3)[C@@H]4NC(=O)c3ncccc3Cl)nc2)c2c(C#N)cnn2c1 [Example 44, 3-chloro-N-((1R,5S,6r)-3-(5-(3-cyano-6-(2-hydroxy-2-methylpropoxy)pyrazolo[1,5-a]pyridin-4-yl)pyridin-2-yl)-3-azabicyclo[3.1.0]hexan-6-yl)picolinamide] | – | 50 to 100 | > 100 | > 100
2 | CCOc1cc(-c2cnc(N3C[C@@H]4[C@H](C3)[C@H]4NC(=O)c3ncccc3Cl)cn2)c2c(C#N)cnn2c1 [Example 42, 3-chloro-N-((1R,5S,6s)-3-(5-(3-cyano-6-ethoxypyrazolo[1,5-a]pyridin-4-yl)pyrazin-2-yl)-3-azabicyclo[3.1.0]hexan-6-yl)picolinamide] | – | 50 to 100 | > 100 | > 100
3 | Cn1cc(-c2cc(-c3ccc(N4C5CC6CC4CC(NC(=O)c4ncccc4Cl)(C6)C5)nc3)c3c(C#N)cnn3c2)cn1 [Example 89, 3-chloro-N-((1R,3S,5s,7s)-2-(5-(3-cyano-6-(1-methyl-1H-pyrazol-4-yl)pyrazolo[1,5-a]pyridin-4-yl)pyridin-2-yl)-2-azaadamantan-5-yl)picolinamide] | – | ≤ 10 | ≤ 10 | ≤ 10
4 | CC(C)C(O)C(=O)NC[C@H]1[C@H]2CN(c3ccc(-c4cc(-c5cnn(C)c5)cn5ncc(C#N)c45)cn3)C[C@@H]12 (stereo partly drawn) [Example 77, N-(((1R,5S,6r)-3-(5-(3-cyano-6-(1-methyl-1H-pyrazol-4-yl)pyrazolo[1,5-a]pyridin-4-yl)pyridin-2-yl)-3-azabicyclo[3.1.0]hexan-6-yl)methyl)-2-hydroxy-3-methylbutanamide] | – | ≤ 10 | ≤ 10 | ≤ 10
5 | Cn1cc(-c2cc(-c3ccc(N4C[C@@H]5[C@@H](CNS(=O)(=O)c6c(F)cccc6Cl)[C@@H]5C4)nc3)c3c(C#N)cnn3c2)cn1 [Example 74, 2-chloro-N-(((1R,5S,6r)-3-(5-(3-cyano-6-(1-methyl-H-pyrazol-4-yl)pyrazolo[1,5-a]pyridin-4-yl)pyridin-2-yl)-3-azabicyclo[3.1.0]hexan-6-yl)methyl)-6-fluorobenzenesulfonamide] | – | ≤ 10 | 10 to 50 | 10 to 50
6 | CC(C)C(=O)N1C[C@@H]2CN(c3ccc(-c4cc(-c5cnn(C)c5)cn5ncc(C#N)c45)cn3)C[C@@H]2C1 [Example 10, 4-(6-((3aR,6aS)-5-isobutyrylhexahydropyrrolo[3,4-c]pyrrol-2(1H)-yl)pyridin-3-yl)-6-(1-methyl-1H-pyrazol-4-yl)pyrazolo[1,5-a]pyridine-3-carbonitrile] | – | ≤ 10 | 10 to 50 | 10 to 50
7 | Cn1cc(-c2cc(-c3ccc(N4C[C@@H]5[C@H](C4)[C@@H]5NS(=O)(=O)c4c(F)cccc4Cl)nc3)c3c(C#N)cnn3c2)cn1 [Example 35, 2-chloro-N-((1R,5S,6r)-3-(5-(3-cyano-6-(1-methyl-1H-pyrazol-4-yl)pyrazolo[1,5-a]pyridin-4-yl)pyridin-2-yl)-3-azabicyclo[3.1.0]hexan-6-yl)-6-fluorobenzenesulfonamide] | – | ≤ 10 | 10 to 50 | 10 to 50

Now from value to molecule, other results behind:

Row | GI50 (BAF3-KIF5B-RET cells) [nM] | IC50 (human RET kinase) [nM] | IC50 (human KDR kinase) [nM] | Structure (SMILES) | IC50 (TT cells) [nM]
8 | 10 to 50 | ≤ 10 | – | COc1ccc(C(=O)NC23CC4CC(C2)N(c2cnc(-c5cc(OCC(C)(C)O)cn6ncc(C#N)c56)cn2)C(C4)C3)cn1 [Example 166, N-((1R,3S,5s,7s)-2-(5-(3-cyano-6-(2-hydroxy-2-methylpropoxy)pyrazolo[1,5-a]pyridin-4-yl)pyrazin-2-yl)-2-azaadamantan-5-yl)-6-methoxynicotinamide] | –
9 | ≤ 10 | ≤ 10 | – | CC(C)(O)COc1cc(-c2ccc(N3C[C@@H]4[C@@H](CNC(=O)c5c(F)cccc5Cl)[C@@H]4C3)nc2)c2c(C#N)cnn2c1 [Example 125, 2-chloro-N-(((1R,5S,6s)-3-(5-(3-cyano-6-(2-hydroxy-2-methylpropoxy)pyrazolo[1,5-a]pyridin-4-yl)pyridin-2-yl)-3-azabicyclo[3.1.0]hexan-6-yl)methyl)-6-fluorobenzamide] | –
10 | ≤ 10 | ≤ 10 | – | COc1ccnc(C(=O)N[C@]2(C)C[C@H]3CN(c4cnc(-c5cc(-c6cnn(C)c6)cn6ncc(C#N)c56)cn4)C[C@H]3C2)c1 [Example 149, N-((3aR,5s,6aS)-2-(5-(3-cyano-6-(1-methyl-1H-pyrazol-4-yl)pyrazolo[1,5-a]pyridin-4-yl)pyrazin-2-yl)-5-methyloctahydrocyclopenta[c]pyrrol-5-yl)-4-methoxypicolinamide] | –
11 | – | ≤ 10 | 10 to 50 | Cn1cc(-c2cc(-c3ccc(N4C[C@@H]5[C@@H](CNC(=O)c6c(F)cccc6Cl)[C@@H]5C4)nc3)c3c(C#N)cnn3c2)cn1 [Example 83, 2-chloro-N-(((1R,5S,6s)-3-(5-(3-cyano-6-(1-methyl-1H-pyrazol-4-yl)pyrazolo[1,5-a]pyridin-4-yl)pyridin-2-yl)-3-azabicyclo[3.1.0]hexan-6-yl)methyl)-6-fluorobenzamide] | ≤ 10
12 | – | ≤ 10 | 10 to 50 | Cc1ccc(Cl)c(C(=O)N[C@H]2[C@@H]3CN(c4ccc(-c5cc(-c6cnn(C)c6)cn6ncc(C#N)c56)cn4)C[C@@H]32)n1 [Example 27, 3-chloro-N-((1R,5S,6s)-3-(5-(3-cyano-6-(1-methyl-1H-pyrazol-4-yl)pyrazolo[1,5-a]pyridin-4-yl)pyridin-2-yl)-3-azabicyclo[3.1.0]hexan-6-yl)-6-methylpicolinamide] | 10 to 50
13 | – | ≤ 10 | 10 to 50 | Cn1ccc(-c2cc(-c3ccc(N4C[C@@H]5C[C@@](C)(NS(=O)(=O)c6c(F)cccc6Cl)C[C@@H]5C4)nc3)c3c(C#N)cnn3c2)n1 [Example 178, 2-chloro-N-((3aR,5s,6aS)-2-(5-(3-cyano-6-(1-methyl-1H-pyrazol-3-yl)pyrazolo[1,5-a]pyridin-4-yl)pyridin-2-yl)-5-methyloctahydrocyclopenta[c]pyrrol-5-yl)-6-fluorobenzenesulfonamide] | ≤ 10
14 | – | ≤ 10 | 10 to 50 | Cn1cc(-c2cc(-c3cnc(N4C[C@@H]5C[C@@](C)(NC(=O)c6ncccc6F)C[C@@H]5C4)cn3)c3c(C#N)cnn3c2)cn1 [Example 142, N-((3aR,5s,6aS)-2-(5-(3-cyano-6-(1-methyl-1H-pyrazol-4-yl)pyrazolo[1,5-a]pyridin-4-yl)pyrazin-2-yl)-5-methyloctahydrocyclopenta[c]pyrrol-5-yl)-3-fluoropicolinamide] | ≤ 10
15 | – | ≤ 10 | 10 to 50 | CC(C)C(O)C(=O)N[C@@H]1[C@@H]2CN(c3ccc(-c4cc(-c5cnn(C)c5)cn5ncc(C#N)c45)cc3)C[C@@H]21 (stereo partly drawn) [Example 17, N-((1R,5S,6r)-3-(4-(3-cyano-6-(1-methyl-1H-pyrazol-4-yl)pyrazolo[1,5-a]pyridin-4-yl)phenyl)-3-azabicyclo[3.1.0]hexan-6-yl)-2-hydroxy-3-methylbutanamide] | 10 to 50
16 | – | ≤ 10 | 50 to 100 | CCOc1cc(-c2ccc(N3C[C@@H]4C[C@@](C)(NC(=O)c5c(C)cccc5Cl)C[C@@H]4C3)nc2)c2c(C#N)cnn2c1 [Example 63, 2-chloro-N-((3aR,5s,6aS)-2-(5-(3-cyano-6-ethoxypyrazolo[1,5-a]pyridin-4-yl)pyridin-2-yl)-5-methyloctahydrocyclopenta[c]pyrrol-5-yl)-6-methylbenzainide] | 10 to 50
17 | – | ≤ 10 | 50 to 100 | CCOc1cc(-c2ccc(N3C[C@@H]4C[C@@](C)(NC(=O)c5c(F)cccc5Cl)C[C@@H]4C3)nc2)c2c(C#N)cnn2c1 [Example 66, 2-chloro-N-((3aR,5s,6aS)-2-(5-(3-cyano-6-ethoxypyrazolo[1,5-a]pyridin-4-yl)pyridin-2-yl)-5-methyloctaliydrocyclopenta[c]pyrrol-5-yl)-6-fluorobenzamide] | 10 to 50
